Consider 15 molecules from PubChem BioAssay AID224 (DTP/NCI, 2004).

Values joined by “and” are separate entries in the source; they are usually repeats but may differ in a detail not shown here. Equal values may be shown once. Toxic doses and inconclusive results are not listed. Starred links: 1 amine or outer side, 2 acyl side, 3 side chain; linkers in the order of their positions; H or OH if unused. Positions of bridges follow the written chain, without caps; N, C: chain ends. Non-standard residues stand in square brackets, D forms with d. Residues, ends and D or L forms follow the SMILES beside them. Chains are numbered I, II in the order given. Actinocin(9to1) = Cc1c2oc3c(C)ccc(C(=O)[*:1])c3nc-2c(C(=O)[*:2])c(N)c1=O; aThr = C[C@H](O)[C@H](N)C(=O)O; NMeV = CN[C@H](C(=O)O)C(C)C; Sar = CNCC(=O)O

This test concerns P335 leukemia ip, BDF1 mice, survival T/C %. Nature of the test: NCI In Vivo Anticancer Drug Screen. Data for tumor model P335 Leukemia (intraperitoneal) in B6D2F1 (BDF1) mice. The conditions noted are these: endpoint: mean survival time, schedule: Q01DX Z (ip), higher = longer survival. As to the method:
The antitumor activity of compounds was measured in mice bearing transplantable tumors. Survival or tumor size were measured and the results are expressed as the measurement made in the treated group (T) divided by the measurement made in the vehicle treated control group (C). The tumor model used in this assay is P335 Leukemia (intraperitoneal) in B6D2F1 (BDF1) mice

Setting [1] is: dose: 16.0 mg/kg/injection, vehicle: carboxymethylcellulose (CMC).
Setting [2] is: dose: 125.0 mg/kg/injection, vehicle: carboxymethylcellulose (CMC).
The mark [3] stands for this setting: dose: 9.4 mg/kg/injection, vehicle: carboxymethylcellulose (CMC).
Setting [4] is: dose: 18.75 mg/kg/injection, vehicle: carboxymethylcellulose (CMC).
The mark [5] stands for this setting: dose: 3.75 mg/kg/injection, vehicle: carboxymethylcellulose (CMC).

`Cc1c2oc3c(C)ccc(C(=O)N[C@@H]4C(=O)N[C@H](C(C)C)C(=O)N5CCC[C@H]5C(=O)N(C)CC(=O)N(C)[C@@H](C(C)C)C(=O)O[C@H]4C)c3nc-2c(C(=O)N[C@@H]2C(=O)N[C@H](C(C)C)C(=O)N3CCC[C@H]3C(=O)N(C)CC(=O)N(C)[C@@H](C(C)C)C(=O)O[C@H]2C)c(N)c1=O` (I: [aThr][dV]P[Sar][NMeV] / II: [aThr][dV]P[Sar][NMeV]; ester I:1-I:C, II:1-II:C; linker I:N-II:N via Actinocin(9to1)): the T/C runs as follows: (dose: 0.8 micrograms/kg/injection, vehicle: saline) 106 % of control; (dose: 1.6 micrograms/kg/injection, vehicle: saline) 106 % of control; (dose: 2.5 micrograms/kg/injection, vehicle: saline) 96 % of control; (dose: 4.9 micrograms/kg/injection, vehicle: saline) 102 % of control; (dose: 6.4 micrograms/kg/injection, vehicle: saline) 120 % of control; (dose: 9.8 micrograms/kg/injection, vehicle: saline) 98 % of control. Moreover, the T/C is 88 % of control (dose: 19.5 micrograms/kg/injection, vehicle: saline); 122 % of control (dose: 38.9 micrograms/kg/injection, vehicle: saline); 115 % of control (dose: 51.2 micrograms/kg/injection, vehicle: saline); 103 % of control (dose: 102.4 micrograms/kg/injection, vehicle: saline).

Regarding `C[C@@H]1C[C@@H]([C@H](O)CC2CC(=O)NC(=O)C2)C(=O)[C@@H](C)C1`, the T/C (dose: 0.78 mg/kg/injection, vehicle: water) was 113 % of control; the T/C (dose: 1.56 mg/kg/injection, vehicle: water) is 106 % of control and 112 % of control; the T/C (dose: 3.12 mg/kg/injection, vehicle: water) is 89 % of control; the T/C (dose: 6.25 mg/kg/injection, vehicle: water) was 100 % of control; the T/C (dose: 12.5 mg/kg/injection, vehicle: water) is 106 % of control; the T/C (dose: 25.0 mg/kg/injection, vehicle: water) was 100 % of control. Besides, the T/C (dose: 50.0 mg/kg/injection, vehicle: water) was 111 % of control.

Take `CC[C@]1(O)C[C@H]2CN(CCc3c([nH]c4ccccc34)[C@@](C(=O)OC)(c3cc4c(cc3OC)N(C=O)[C@H]3[C@@](O)(C(=O)OC)[C@H](OC(C)=O)[C@]5(CC)C=CCN6CC[C@]43[C@@H]65)C2)C1`: the T/C (dose: 0.12 mg/kg/injection, vehicle: water) was 234 % of control and 101 % of control and 107 % of control; the T/C (dose: 0.5 mg/kg/injection, vehicle: water) is 89 % of control and 90 % of control; the T/C (dose: 1.0 mg/kg/injection, vehicle: water) was 86 % of control.

On to `CCOC(=O)NP(=O)(N1CC1(C)C)N1CC1(C)C` (stereo unspecified), for which the T/C by setting is: (dose: 4.0 mg/kg/injection, vehicle: carboxymethylcellulose (CMC)) 101 % of control; (dose: 8.0 mg/kg/injection, vehicle: carboxymethylcellulose (CMC)) 106 % of control; under setting [1], 114 % of control; (dose: 31.25 mg/kg/injection, vehicle: carboxymethylcellulose (CMC)) 101 % of control; under setting [2], 88 % of control; (dose: 250.0 mg/kg/injection, vehicle: carboxymethylcellulose (CMC)) 93 % of control.

Take `C1CN1c1nc(N2CC2)nc(N2CC2)n1`: the T/C reads like this: (dose: 0.9 micrograms/kg/injection, vehicle: saline) 87 % of control; (dose: 1.9 micrograms/kg/injection, vehicle: saline) 90 % of control; (dose: 7.8 micrograms/kg/injection, vehicle: saline) 90 % of control and 114 % of control.

For `O=c1[nH]c(=O)n(C2CC(O)C(CO)O2)cc1I` (stereo unspecified), the T/C is 93 % of control (dose: 225.0 mg/kg/injection, vehicle: carboxymethylcellulose (CMC)) and 104 % of control (dose: 450.0 mg/kg/injection, vehicle: carboxymethylcellulose (CMC)).

For `Nc1nc(SCc2ccccc2)c2[nH]cnc2n1`, the T/C (dose: 2.35 mg/kg/injection, vehicle: carboxymethylcellulose (CMC)) was 87 % of control; the T/C under setting [3] is 108 % of control; the T/C under setting [4] was 87 % of control.

As for `O=C1CCC(N2C(=O)c3ccccc3C2=O)C(=O)N1` (stereo unspecified), the T/C is, setting by setting: under setting [3], 92 % of control; under setting [4], 86 % of control and 97 % of control; (dose: 37.5 mg/kg/injection, vehicle: carboxymethylcellulose (CMC)) 88 % of control and 90 % of control and 119 % of control; (dose: 75.0 mg/kg/injection, vehicle: carboxymethylcellulose (CMC)) 100 % of control and 102 % of control; (dose: 150.0 mg/kg/injection, vehicle: carboxymethylcellulose (CMC)) 88 % of control and 98 % of control; (dose: 300.0 mg/kg/injection, vehicle: carboxymethylcellulose (CMC)) 86 % of control.

For the molecule `CCOC(N)=O`, the T/C by setting is: (dose: 63.0 mg/kg/injection, vehicle: saline) 95 % of control; (dose: 93.75 mg/kg/injection, vehicle: saline) 109 % of control; (dose: 125.0 mg/kg/injection, vehicle: saline) 108 % of control; (dose: 250.0 mg/kg/injection, vehicle: saline) 95 % of control; (dose: 500.0 mg/kg/injection, vehicle: saline) 112 % of control.

`CS(=O)(=O)OCCCl`: the T/C was 98 % of control (dose: 0.8 mg/kg/injection, vehicle: carboxymethylcellulose (CMC)); 93 % of control (dose: 1.6 mg/kg/injection, vehicle: carboxymethylcellulose (CMC)); 102 % of control (dose: 3.1 mg/kg/injection, vehicle: carboxymethylcellulose (CMC)); 86 % of control (dose: 6.2 mg/kg/injection, vehicle: carboxymethylcellulose (CMC)).

For `C[C@H]1C(=O)O[C@@H]2CCN3CC=C(COC(=O)[C@](C)(O)[C@@]1(C)O)[C@H]23`, the T/C under setting [5] is 87 % of control; the T/C (dose: 7.5 mg/kg/injection, vehicle: carboxymethylcellulose (CMC)) is 94 % of control; the T/C (dose: 15.0 mg/kg/injection, vehicle: carboxymethylcellulose (CMC)) was 91 % of control and 93 % of control; the T/C (dose: 30.0 mg/kg/injection, vehicle: carboxymethylcellulose (CMC)) is 96 % of control.

Turning to `O=CN(O)CC(=O)O`, the T/C (dose: 125.0 mg/kg/injection, vehicle: none) was 87 % of control; the T/C (dose: 250.0 mg/kg/injection, vehicle: none) was 95 % of control; the T/C (dose: 500.0 mg/kg/injection, vehicle: carboxymethylcellulose (CMC)) was 109 % of control; the T/C (dose: 500.0 mg/kg/injection, vehicle: none) is 89 % of control; the T/C (dose: 1000.0 mg/kg/injection, vehicle: carboxymethylcellulose (CMC)) is 93 % of control.

In the case of `CSc1ncnc2nc[nH]c12`, the T/C (dose: 12.5 mg/kg/injection, vehicle: carboxymethylcellulose (CMC)) was 96 % of control; the T/C (dose: 50.0 mg/kg/injection, vehicle: carboxymethylcellulose (CMC)) is 90 % of control; the T/C (dose: 50.0 mg/kg/injection, vehicle: methylcellulose (MC)) was 87 % of control.

Consider `[I][Hg][CH2]C1COC([CH2][Hg][I])CO1` (stereo unspecified), for which the T/C under setting [5] is 110 % of control.

Take `OCC1OC(n2cnc3c(=S)nc[nH]c32)C(O)C1O` (stereo unspecified): the T/C was 87 % of control and 90 % of control under setting [1]; 109 % of control and 110 % of control (dose: 31.0 mg/kg/injection, vehicle: carboxymethylcellulose (CMC)); 98 % of control (dose: 62.5 mg/kg/injection, vehicle: carboxymethylcellulose (CMC)); 93 % of control under setting [2].
